From patent US20020115710A1, “Composition and method” (priority 2000, published 2002)

Tests used:
GSH:GSSG ratio = GSH:GSSG ratio in isolated blood lymphocytes of dogs fed dl-alpha lipoic acid (Example 3); format: in vivo
Excerpt: (§1) 30 adult, random source, dogs were utilized for this study. Dogs were at least 10 months of age, not pregnant, not lactating and of reasonable body weight prior to start of test. Animals were randomized into 5 groups for dietary treatment with 3 males and 3 females per each group.
All dogs were fed a control food (0 ppm dl-alpha-lipoic acid added) that met or exceeded all recommendations for nutrients as proposed by the American Association of Feed Control Officials (AAFCO 2000) during a 2 week prefeeding period (Table 1). Following the prefeeding period dogs were randomized into 5 treatment groups with one of the following dl-alpha lipoic acid target-inclusions (dry matter basis): 0 ppm, 150 ppm, 1500 ppm, 3000 ppm, 4500 ppm. In all diets, control and alpha lipoic acid, Vitamin E was added and was present at a level of 600-1000 International Units and Vitamin C was added at levels of 100-200 ppm.
Blood was collected aseptically for complete blood count, and blood biochemistry analysis 2 weeks prior to start and again at 0, 28, 56, 84, 112, 140 and 168 days of the study. In addition, 15 ml of whole blood was collected for isolation of lymphocytes at day 0, 28 and 84 of the dietary intervention.
Heparainzed whole blood was layered onto a 50 ml Accuspin conical centrifuge tube (Sigma Chemical) and an equal volume of Phosphate buffered saline (PBS) was added. Samples were centrifuged at 700 g for 30 minutes without brake. The monocyte layer was harvested, transferred to a 15 ml conical centrifuge tube, resuspended in 1-3 ml of PB, and centrifuged as before (First wash). A second wash was performed as the first wash. Finally, cells were harvested and suspended in perchloric acid (10%w/v) and frozen at −−70C until analysis.
Samples were transferred from −70° C. freezer into a cooler with dry ice in it. Vials were centrifuged at 12,000 rpm for 5 minutes in a refrigerated centrifuge. An aliquot of supernatant for glutathione (GSH) analysis was transferred to a conical test tube.
Derivatization of the acid soluble extracts was by the method of Reed and coworkers (Fariss et al) as modified by Jones (Jones et al)
Briefly, 150 μl extract or external standards were added into a 1.5 ml eppendorf tube followed by addition of 20 μl γ-glu-glu internal standard and 50 μl IAA added followed by mixing. The solution was adjusted to pH ˜10 (purple color) by using KOH—KHCO3 working solution. Solutions were incubated 1 hr. under room temperature in the dark. Sanger's reagent was added at the same volume as of the total volume and the solution was incubated overnight (20 hrs) in the dark at room temperature.
After incubation, the solution was centrifuged at 12000 rpm for 5 minutes with the supernatant transferred into another 1.5 ml eppendorf tube.
Solvents and separation conditions were as described (Fariss, Jones). Levels of GSH and GSSG were quantified relative to authentic standards. Gamma-glutamyl-glutamate was used as an internal standard to assess derivatization efficiency.
Comparison of values for clinical chemistry, hematology and body weights vs baseline were analyzed by way of paired t-test on SAS for windows with significance set at P<0.05. Means of values at each measured time point were separated by a one-way ANOVA with significance set at P<0.05. The difference in GSH:GSSG between day 84 and baseline were analyzed between groups by way of SAS for windows in a one-way ANOVA with significance set at P<0.05.

dogs = assay: Feeding safety study of dl-alpha lipoic acid in food: body weight, physical examination, serum biochemistry, hematology (Example 3); format: in vivo
Excerpt: as §1
All dogs were fed a control food (0 ppm dl-alpha-lipoic acid added) that met or exceeded all recommendations for nutrients as proposed by the American Association of Feed Control Officials (AAFCO 2000) during a 2 week prefeeding period (Table 1). […]
Test foods were the sole source of nutrients except for water. […] After dogs were selected and initial body weights taken, a food dose was calculated for each dog based on the expected ME of the food. Initial food dose calculations were based on the maintenance energy requirement (MER) for the dog modified by a factor to account for normal activity as calculated by the following formula: […]
Dogs were weighed weekly and had food doses adjusted as needed in order to feed enough food to maintain their optimal body weight. Optimal body weight was determined to be 3 on a 5 point scale. […] All measures of body weight and food intake were recorded. […]
Comparison of values for clinical chemistry, hematology and body weights vs baseline were analyzed by way of paired t-test on SAS for windows with significance set at P<0.05. […]

SMILES: O=C(O)CCCCC1CCSS1 (racemic) [dl-alpha-lipoic acid]
- Difference in GSH:GSSG ratio-d 0 to d 84 compared to baseline food (GSH:GSSG ratio; 150 ppm inclusion in extruded food, N 6): 70 ± 20
- Difference in GSH:GSSG ratio-d 0 to d 84 compared to baseline food (GSH:GSSG ratio; 1500 ppm inclusion in extruded food, N 6): 24 ± 7
- Difference in GSH:GSSG ratio-d 0 to d 84 compared to baseline food (GSH:GSSG ratio; 3000 ppm inclusion in extruded food, N 4): 10 ± 4
- Difference in GSH:GSSG ratio-d 0 to d 84 compared to baseline food (GSH:GSSG ratio; 4500 ppm inclusion in extruded food, N 4): 50 ± 36
- effect on reduced glutathione (GSH) to oxidized glutathione (GSSG) ratio (GSH:GSSG ratio; 84 days of feeding in diet): improves
- safety of chronic feeding in diet (dogs; dog, in vivo): safe
- vomiting during the study (dogs; dogs, no trend attributable to lipoic acid): Occasional vomiting was observed in several animals
